Target: T1, DmX receptor (DmXR) (Drosophila melanogaster, UniProt Q70GQ8)
T1 construct: gene mtt; HA-DmXR WT, transiently expressed in HEK 293 cells
T1 sequence (Q70GQ8 1-1073): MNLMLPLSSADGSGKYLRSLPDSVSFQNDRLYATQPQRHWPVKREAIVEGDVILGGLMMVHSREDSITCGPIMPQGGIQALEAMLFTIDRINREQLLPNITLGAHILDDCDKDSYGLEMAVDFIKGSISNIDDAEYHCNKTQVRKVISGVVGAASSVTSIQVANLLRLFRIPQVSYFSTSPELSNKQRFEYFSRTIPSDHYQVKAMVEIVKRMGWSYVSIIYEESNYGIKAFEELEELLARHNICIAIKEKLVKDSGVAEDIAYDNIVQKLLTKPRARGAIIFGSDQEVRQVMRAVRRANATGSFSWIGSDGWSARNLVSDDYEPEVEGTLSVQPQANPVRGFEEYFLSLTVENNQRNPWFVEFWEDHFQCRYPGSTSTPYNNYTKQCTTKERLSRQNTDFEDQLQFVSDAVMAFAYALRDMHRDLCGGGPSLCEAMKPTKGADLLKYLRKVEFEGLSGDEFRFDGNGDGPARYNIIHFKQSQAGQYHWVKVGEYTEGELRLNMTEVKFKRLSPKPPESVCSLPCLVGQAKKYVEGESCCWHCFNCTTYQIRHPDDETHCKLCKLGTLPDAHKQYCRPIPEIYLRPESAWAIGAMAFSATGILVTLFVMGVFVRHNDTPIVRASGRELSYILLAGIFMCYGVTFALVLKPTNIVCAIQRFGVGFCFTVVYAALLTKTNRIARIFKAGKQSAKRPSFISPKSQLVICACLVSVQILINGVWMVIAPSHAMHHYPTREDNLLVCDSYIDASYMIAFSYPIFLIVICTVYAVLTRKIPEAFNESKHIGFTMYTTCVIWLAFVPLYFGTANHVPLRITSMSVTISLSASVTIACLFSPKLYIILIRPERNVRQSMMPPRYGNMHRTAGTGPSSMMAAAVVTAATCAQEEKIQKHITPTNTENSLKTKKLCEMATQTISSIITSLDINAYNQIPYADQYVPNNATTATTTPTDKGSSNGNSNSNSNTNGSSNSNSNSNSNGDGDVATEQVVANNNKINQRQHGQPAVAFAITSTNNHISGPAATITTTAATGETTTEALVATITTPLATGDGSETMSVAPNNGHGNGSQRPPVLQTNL
Assay: IP accumulation in HEK cells coexpressing DmXR and Gqi9; inhibition of activation by […] L-canavanine (antagonist)
Assay type: cell-based

Q: CN=C(N)NCCC[C@H](N)C(=O)O [NMA, N-methyl-L-arginine] was tested. Which IC50 did it give?
A: 200 ± 200 µM
